Data taken from ChEMBL document CHEMBL6178014, “Discovery and Administration Optimization of Novel Selective CDK9 Inhibitor, 1-7a-B1, for Improved Pharmacokinetics and Antitumor Efficacy In Vivo” (J Med Chem, 2025).
pIC50: −log10 of the molar value.

Experiments:
CDK9/cyclin T1 = CDK9/cyclin T1 (Homo sapiens, UniProt P50750); assay: Inhibition of His-tagged full length human recombinant CDK9/cyclinT1 using KTFCGTPEYLAPEVRREPRILSEEEQEMFRDFDYIADWC as substrate incubated for 60 mins by ADP-Glo kinase assay; type: protein-complex assay
HCT-116 [1] = assay: Antiproliferative activity against human HCT-116 cells assessed as inhibition of cell growth incubated for 48 hrs by CCK8 assay; type: functional
HT-29 = assay: Antiproliferative activity against human HT-29 cells assessed as inhibition of cell growth incubated for 48 hrs by CCK8 assay; type: functional
HCT-116 [2] = assay: Antiproliferative activity against human HCT-116 cells assessed as reduction in colony formation incubated for 14 days by crystal violet staining based analysis; type: functional, cell-based; settings: dose 50-400 nM, time 14.0 day
CYP1A2 = CYP1A2 (Homo sapiens, UniProt P05177); assay: Inhibition of CYP1A2 in human liver microsome at 10 uM pre-incubated with compound for 10 mins in presence of NADPH-regenerating system by LC-MS/MS analysis relative to control; type: ADME; settings: liver microsomes
[3] = Stability in human plasma assessed as half life at 100 uM measured up to 120 mins by LC-MS/MS analysis; type: ADME, cell-free
CYP2C9 = CYP2C9 (Homo sapiens, UniProt P11712); assay: Inhibition of CYP2C9 in human liver microsome at 10 uM pre-incubated with compound for 10 mins in presence of NADPH-regenerating system by LC-MS/MS analysis relative to control; type: ADME; settings: liver microsomes
[4] = Metabolic stability in human liver microsome assessed as half life at 100 uM pre-incubated with compound for 60 mins followed by NADPH addition and measured up to 60 mins by LC-MS/MS analysis; type: ADME; settings: liver microsomes, time < 120 min
CYP2C19 = CYP2C19 (Homo sapiens, UniProt P33261); assay: Inhibition of CYP2C19 in human liver microsome at 10 uM pre-incubated with compound for 10 mins in presence of NADPH-regenerating system by LC-MS/MS analysis relative to control; type: ADME; settings: liver microsomes
Chain of CYP2C19 (P33261 whole entry): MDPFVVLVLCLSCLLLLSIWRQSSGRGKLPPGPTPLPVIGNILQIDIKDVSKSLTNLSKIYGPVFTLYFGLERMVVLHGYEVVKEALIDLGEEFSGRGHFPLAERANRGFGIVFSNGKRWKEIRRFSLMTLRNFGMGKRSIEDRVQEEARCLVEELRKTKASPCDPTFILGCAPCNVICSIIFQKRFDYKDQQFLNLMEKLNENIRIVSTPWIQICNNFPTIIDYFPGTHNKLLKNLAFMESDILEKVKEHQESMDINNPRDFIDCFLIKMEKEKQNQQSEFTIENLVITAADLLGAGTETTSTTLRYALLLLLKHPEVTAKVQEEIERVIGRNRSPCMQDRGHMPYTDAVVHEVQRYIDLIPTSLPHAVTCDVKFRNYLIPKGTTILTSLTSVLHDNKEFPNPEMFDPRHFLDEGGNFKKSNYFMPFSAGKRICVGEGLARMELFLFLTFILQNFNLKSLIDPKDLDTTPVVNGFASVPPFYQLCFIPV

Chain of CDK9/cyclin T1 (O60563 whole entry): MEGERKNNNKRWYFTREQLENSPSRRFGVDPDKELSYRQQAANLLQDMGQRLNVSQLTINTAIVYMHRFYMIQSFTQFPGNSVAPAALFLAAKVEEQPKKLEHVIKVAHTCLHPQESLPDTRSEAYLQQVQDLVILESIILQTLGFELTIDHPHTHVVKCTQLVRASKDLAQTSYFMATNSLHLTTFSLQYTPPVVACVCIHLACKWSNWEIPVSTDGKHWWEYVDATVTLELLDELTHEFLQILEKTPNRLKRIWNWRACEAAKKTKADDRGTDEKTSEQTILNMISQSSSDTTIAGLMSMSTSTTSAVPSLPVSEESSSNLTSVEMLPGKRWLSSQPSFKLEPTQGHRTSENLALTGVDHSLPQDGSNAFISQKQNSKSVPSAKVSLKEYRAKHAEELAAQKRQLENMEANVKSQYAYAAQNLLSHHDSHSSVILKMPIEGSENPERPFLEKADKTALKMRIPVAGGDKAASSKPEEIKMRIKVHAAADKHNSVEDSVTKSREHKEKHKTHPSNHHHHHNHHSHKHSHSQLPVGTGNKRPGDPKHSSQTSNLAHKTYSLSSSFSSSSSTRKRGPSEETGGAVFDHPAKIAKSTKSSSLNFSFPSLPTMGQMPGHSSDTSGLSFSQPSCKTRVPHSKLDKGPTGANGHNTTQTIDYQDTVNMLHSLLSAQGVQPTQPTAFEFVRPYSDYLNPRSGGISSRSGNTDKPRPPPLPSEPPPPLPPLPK
Chain of CDK9/cyclin T1 (P50750 whole entry): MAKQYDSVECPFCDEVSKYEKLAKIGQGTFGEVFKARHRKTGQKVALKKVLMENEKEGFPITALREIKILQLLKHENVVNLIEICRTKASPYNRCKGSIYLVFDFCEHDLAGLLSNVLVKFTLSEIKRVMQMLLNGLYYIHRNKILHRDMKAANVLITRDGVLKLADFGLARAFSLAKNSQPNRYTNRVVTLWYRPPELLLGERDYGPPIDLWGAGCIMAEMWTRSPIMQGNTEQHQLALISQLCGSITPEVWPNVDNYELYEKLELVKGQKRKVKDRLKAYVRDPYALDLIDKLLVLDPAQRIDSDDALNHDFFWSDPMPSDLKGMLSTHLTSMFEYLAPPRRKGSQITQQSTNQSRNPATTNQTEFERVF
Chain of CYP2C9 (P11712 whole entry): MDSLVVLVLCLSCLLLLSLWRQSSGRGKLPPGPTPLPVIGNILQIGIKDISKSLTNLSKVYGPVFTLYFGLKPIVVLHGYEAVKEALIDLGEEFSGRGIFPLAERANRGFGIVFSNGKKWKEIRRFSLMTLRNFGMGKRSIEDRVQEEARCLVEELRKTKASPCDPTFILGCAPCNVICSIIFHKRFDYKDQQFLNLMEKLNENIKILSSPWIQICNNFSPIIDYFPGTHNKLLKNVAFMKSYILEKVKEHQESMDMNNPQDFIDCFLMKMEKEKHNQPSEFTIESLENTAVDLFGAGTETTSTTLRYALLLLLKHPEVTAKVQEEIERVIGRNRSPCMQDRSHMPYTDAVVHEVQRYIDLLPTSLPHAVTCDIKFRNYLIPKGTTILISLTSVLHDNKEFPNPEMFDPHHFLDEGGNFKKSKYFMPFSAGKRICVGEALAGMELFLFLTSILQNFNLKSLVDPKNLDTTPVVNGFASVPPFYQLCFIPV
Chain of CYP1A2 (P05177 whole entry): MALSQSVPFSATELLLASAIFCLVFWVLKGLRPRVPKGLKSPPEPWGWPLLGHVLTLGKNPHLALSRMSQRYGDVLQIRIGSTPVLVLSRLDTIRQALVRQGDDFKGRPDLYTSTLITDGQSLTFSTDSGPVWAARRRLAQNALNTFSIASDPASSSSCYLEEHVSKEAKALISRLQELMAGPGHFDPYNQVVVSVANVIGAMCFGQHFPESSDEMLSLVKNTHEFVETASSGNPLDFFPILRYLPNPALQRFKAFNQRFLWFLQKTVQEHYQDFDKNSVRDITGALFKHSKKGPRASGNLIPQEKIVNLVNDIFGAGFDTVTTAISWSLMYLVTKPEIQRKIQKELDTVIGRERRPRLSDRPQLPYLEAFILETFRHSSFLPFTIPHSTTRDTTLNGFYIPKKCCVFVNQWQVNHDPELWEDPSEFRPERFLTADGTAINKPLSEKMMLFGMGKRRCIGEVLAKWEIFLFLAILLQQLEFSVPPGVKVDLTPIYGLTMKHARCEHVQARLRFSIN

O=C(Nc1cccc(C(=O)N2CCOCC2)c1)Nc1cc(-c2cccc(F)c2)ccn1
pIC50 (CDK9/cyclin T1): < 7.30 | GI50 (HCT-116 [1]): > 1000 nM | GI50 (HT-29): > 1000 nM

CC(C)Oc1cc(F)ccc1-c1ccnc(NC(=O)Nc2ccc(C(=O)N3CCOCC3)cc2)c1
pIC50 (CDK9/cyclin T1): < 7.30 | GI50 (HCT-116 [1]): > 1000 nM | GI50 (HT-29): > 1000 nM

O=C(Nc1cccc(C(=O)N2CCOCC2)c1)Nc1cc(-c2ccc(F)cc2F)ccn1
pIC50 (CDK9/cyclin T1): < 7.30 | GI50 (HCT-116 [1]): > 1000 nM | GI50 (HT-29): > 1000 nM

CC(C)Oc1cc(F)ccc1-c1ccnc(NC(=O)Nc2cccc(C(=O)N3CCOCC3)c2)c1
pIC50 (CDK9/cyclin T1): 7.68 | GI50 (HCT-116 [1]): 370 nM | GI50 (HT-29): 990 nM

CC(C)Oc1cc(F)ccc1-c1ccnc(NC(=O)Nc2ccc(C(=O)N3CCN(C)CC3)cc2)c1
pIC50 (CDK9/cyclin T1): < 7.30 | GI50 (HCT-116 [1]): > 1000 nM | GI50 (HT-29): > 1000 nM

Cc1ncc(-c2ccnc(Nc3ccc(S(C)(=O)=O)cc3)n2)n1C(C)C [AZD-5438]
GI50 (HCT-116 [1]): 480 nM | GI50 (HT-29): 700 nM | Activity (HCT-116 [2]): Dose-dependent-effect

Cc1ccc(-c2ccnc(NC(=O)Nc3cccc(C(=O)N4CCOCC4)c3)c2)cc1
pIC50 (CDK9/cyclin T1): < 7.30 | GI50 (HCT-116 [1]): > 1000 nM | GI50 (HT-29): > 1000 nM

O=C(Nc1cccc(C(=O)N2CCOCC2)c1)Nc1cc(-c2cccc(Cl)c2)ccn1
pIC50 (CDK9/cyclin T1): 7.45 | GI50 (HCT-116 [1]): > 1000 nM | GI50 (HT-29): > 1000 nM

O=c1cc(-c2ccccc2)oc2c1ccc1ccccc12 [ALPHA-NAPHTHOFLAVONE]
inhibition at 10 µM (CYP1A2): 88.4%

O=C(Nc1cccc(C(=O)N2CCOCC2)c1)Nc1cc(-c2ccc(F)cc2)ccn1
pIC50 (CDK9/cyclin T1): < 7.30 | GI50 (HCT-116 [1]): > 1000 nM | GI50 (HT-29): > 1000 nM

CCN1CCN(C(=O)c2cccc(NC(=O)Nc3cc(-c4ccc(F)cc4OC(C)C)ccn3)c2)CC1
pIC50 (CDK9/cyclin T1): 7.78 | GI50 (HCT-116 [1]): 200 nM | GI50 (HT-29): 570 nM

CC(C)Oc1cc(F)ccc1-c1ccnc(NC(=O)Nc2ccc(C(=O)N3CCCC3)cc2)c1
pIC50 (CDK9/cyclin T1): < 7.30 | GI50 (HCT-116 [1]): > 1000 nM | GI50 (HT-29): > 1000 nM

CCN1CCN(C(=O)c2ccc(NC(=O)Nc3cc(-c4ccc(F)cc4OC(C)C)ccn3)cc2)CC1
pIC50 (CDK9/cyclin T1): < 7.30 | GI50 (HCT-116 [1]): > 1000 nM | GI50 (HT-29): > 1000 nM

COc1cc(F)ccc1-c1ccnc(NC(=O)Nc2cccc(C(=O)N3CCOCC3)c2)c1
pIC50 (CDK9/cyclin T1): 7.56 | GI50 (HCT-116 [1]): > 1000 nM | GI50 (HT-29): > 1000 nM

CC(C)[N+](C)(CCOC(=O)C1c2ccccc2Oc2ccccc21)C(C)C.[Br-] [PROPANTHELINE BROMIDE]
half-life at 100 µM [3]: 15.6 min

Nc1ccc(S(=O)(=O)Nc2ccnn2-c2ccccc2)cc1 [SULFAPHENAZOLE]
inhibition at 10 µM (CYP2C9): 87.2%

CC(C)Oc1cc(F)ccc1-c1ccnc(NC(=O)Nc2cccc(C(=O)N3CCN(C(C)C)CC3)c2)c1
pIC50 (CDK9/cyclin T1): < 7.30 | GI50 (HCT-116 [1]): 960 nM | GI50 (HT-29): 670 nM

CC(=O)N1CCN(C(=O)c2ccc(NC(=O)Nc3cc(-c4ccc(F)cc4OC(C)C)ccn3)cc2)CC1
pIC50 (CDK9/cyclin T1): < 7.30 | GI50 (HCT-116 [1]): > 1000 nM | GI50 (HT-29): > 1000 nM

C[C@]12CC[C@H]3[C@@H](CCC4=CC(=O)CC[C@@]43C)[C@@H]1CC[C@@H]2O [TESTOSTERONE]
half-life at 100 µM [4]: 7.8 min

CCC1(c2ccccc2)NC(=O)N(Cc2ccccc2)C1=O (single isomer, unassigned; (+))
inhibition at 10 µM (CYP2C19): 88.3%

CCOc1cc(F)ccc1-c1ccnc(NC(=O)Nc2cccc(C(=O)N3CCOCC3)c2)c1
pIC50 (CDK9/cyclin T1): 7.52 | GI50 (HCT-116 [1]): > 1000 nM | GI50 (HT-29): > 1000 nM

O=C(O)Cc1ccccc1Nc1c(Cl)cccc1Cl [DICLOFENAC]
half-life at 100 µM [4]: 6.4 min

O=C(Nc1cccc(C(=O)N2CCOCC2)c1)Nc1cc(-c2ccc(F)c(F)c2)ccn1
pIC50 (CDK9/cyclin T1): < 7.30 | GI50 (HCT-116 [1]): > 1000 nM | GI50 (HT-29): > 1000 nM

O=C(Nc1cccc(C(=O)N2CCOCC2)c1)Nc1cc(-c2ccc(F)cc2OCC2CCCC2)ccn1
pIC50 (CDK9/cyclin T1): 7.23 | GI50 (HCT-116 [1]): > 1000 nM | GI50 (HT-29): > 1000 nM

O=C(Nc1cccc(C(=O)N2CCOCC2)c1)Nc1cc(-c2cc(F)cc(F)c2)ccn1
pIC50 (CDK9/cyclin T1): < 7.30 | GI50 (HCT-116 [1]): > 1000 nM | GI50 (HT-29): > 1000 nM

CC(C)Oc1cc(F)ccc1-c1ccnc(NC(=O)Nc2ccc(C(=O)N3CCC(F)(F)CC3)cc2)c1
pIC50 (CDK9/cyclin T1): < 7.30 | GI50 (HCT-116 [1]): > 1000 nM | GI50 (HT-29): > 1000 nM

O=C(Nc1cccc(C(=O)N2CCOCC2)c1)Nc1cc(-c2cc(F)c(F)c(F)c2)ccn1
pIC50 (CDK9/cyclin T1): < 7.30 | GI50 (HCT-116 [1]): > 1000 nM | GI50 (HT-29): > 1000 nM

O=C(Nc1cccc(C(=O)N2CCOCC2)c1)Nc1cc(-c2ccc(F)cc2OCC2CCCCC2)ccn1
pIC50 (CDK9/cyclin T1): 7.05 | GI50 (HCT-116 [1]): > 1000 nM | GI50 (HT-29): > 1000 nM

CC(C)Oc1cc(F)ccc1-c1ccnc(NC(=O)Nc2ccc(C(=O)N3CCN(C(C)C)CC3)cc2)c1
pIC50 (CDK9/cyclin T1): < 7.30 | GI50 (HCT-116 [1]): > 1000 nM | GI50 (HT-29): > 1000 nM

CC(C)Oc1cc(F)ccc1-c1ccnc(NC(=O)Nc2cccc(C(=O)N3CCCC3)c2)c1
pIC50 (CDK9/cyclin T1): 7.45 | GI50 (HCT-116 [1]): > 1000 nM | GI50 (HT-29): 180 nM

COc1ccc(-c2ccnc(NC(=O)Nc3cccc(C(=O)N4CCOCC4)c3)c2)cc1
pIC50 (CDK9/cyclin T1): < 7.30 | GI50 (HCT-116 [1]): > 1000 nM | GI50 (HT-29): > 1000 nM

O=C(Nc1cccc(C(=O)N2CCOCC2)c1)Nc1cc(-c2ccc(Cl)cc2F)ccn1
pIC50 (CDK9/cyclin T1): < 7.30 | GI50 (HCT-116 [1]): > 1000 nM | GI50 (HT-29): > 1000 nM

O=C(Nc1cccc(C(=O)N2CCOCC2)c1)Nc1cc(-c2ccccc2F)ccn1
pIC50 (CDK9/cyclin T1): < 7.30 | GI50 (HCT-116 [1]): > 1000 nM | GI50 (HT-29): > 1000 nM

CC(C)Oc1cc(F)ccc1-c1ccnc(NC(=O)Nc2cccc(C(=O)N3CCCN(C)CC3)c2)c1
pIC50 (CDK9/cyclin T1): < 7.30 | GI50 (HCT-116 [1]): > 1000 nM | GI50 (HT-29): > 1000 nM

CC(=O)N1CCN(C(=O)c2cccc(NC(=O)Nc3cc(-c4ccc(F)cc4OC(C)C)ccn3)c2)CC1
pIC50 (CDK9/cyclin T1): < 7.30 | GI50 (HCT-116 [1]): > 1000 nM | GI50 (HT-29): > 1000 nM

COc1ccccc1-c1ccnc(NC(=O)Nc2cccc(C(=O)N3CCOCC3)c2)c1
pIC50 (CDK9/cyclin T1): 7.34 | GI50 (HCT-116 [1]): > 1000 nM | GI50 (HT-29): > 1000 nM
